Columns and labels:
[1] = system: barnyardgrass; experiment: Test A preemergence; type: in vivo, Echinochloa crus-galli; conditions: for Barnyardgrass plant response rating (0 to 100 scale, 0 is no effect, 100 is complete control): visual injury approx. 10 days after treatment
Summary of the method: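 Visual injury rating, 0–100 (0 no effect, 100 complete control), vs untreated controls ~10 days after treatment in greenhouse. Pre: directed soil spray on seeded loam/sand. Post: 2–10 cm plants, 1–2 leaf stage. Formulation: non-phytotoxic solvent mix + surfactant.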

[2] = system: nutsedge, yellow; experiment: Test C postemergence; type: in vivo, Cyperus esculentus; conditions: for Plant response rating (scale of 0 to 100 where 0 is no effect and 100 is complete control), Nutsedge, Yellow: 31 g ai/ha, visually evaluated after 13 to 15 days; for Nutsedge, Yellow plant response rating / Plant response rating, Nutsedge, Yellow: postemergence; for Nutsedge, Yellow plant response rating: 62 g ai/ha, scale 0 to 100
Summary of the method: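 Visual control ratings on a 0–100 scale (100 = complete control) made against untreated controls after 13 to 15 days in greenhouse. Compounds applied in surfactant-containing solvent mixture, either preemergence to loam/sand-sown seeds or postemergence to 1- to 4-leaf plants (2–18 cm) in peat medium.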

[3] = system: rice; experiment: Test C flooded paddy test; type: in vivo, Oryza sativa; conditions: Flood
Summary of the method: (§1)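 Flooded 3 cm over soil; compound into paddy water; depth kept constant. Greenhouse 13–15 d.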

[4] = system: sedge, umbrella; experiment: Test C flooded paddy test; type: in vivo, Cyperus difformis; conditions: Flood
Summary of the method: as §1

[5] = system: ducksalad; experiment: Test C flooded paddy test; type: in vivo, Heteranthera limosa; conditions: Flood
Summary of the method: as §1

[6] = system: barnyardgrass; experiment: Test C flooded paddy test; type: in vivo, Echinochloa crus-galli; conditions: Flood
Summary of the method: as §1

[7] = system: wheat; experiment: Test C preemergence; type: in vivo, Triticum aestivum
Excerpt: Seeds of plant species selected from blackgrass (Alopecurus myosuroides), ryegrass, Italian (Italian ryegrass, Lolium multiflorum), wheat (winter wheat, Triticum aestivum), galium (catchweed bedstraw, Galium aparine), corn (Zea mays), crabgrass, large (large crabgrass, Digitaria sanguinalis), foxtail, giant (giant foxtail, Setaria faberii), johnsongrass (Sorghum halepense), lambsquarters (Chenopodium album), morningglory (Ipomoea coccinea), nutsedge, yellow (yellow nutsedge, Cyperus esculentus), pigweed (redroot pigweed, Amaranthus retroflexus), ragweed (common ragweed, Ambrosia elation), soybean (Glycine max), barnyardgrass (Echinochloa crus-galli), oilseed rape (Brassica napus), waterhemp (common waterhemp, Amaranthus rudis), oat, wild (wild oat, Avena fatua), kochia (Kochia scoparia), Surinam grass (Brachiaria decumbens), foxtail, green (green foxtail, Setaria viridis), goosegrass (Eleusine indica), bromegrass, downy (downy bromegrass, Bromus tectorum), nightshade (eastern black nightshade, Solanum ptycanthum), cocklebur (common cocklebur, Xanthium strumarium), cupgrass, woolly (woolly cupgrass, Eriochloa villosa), bermudagrass (Cynodon dactylon), sunflower, (common oilseed sunflower, Helianthus annuus), Russian thistle (Salsola kali), and velvetleaf (Abutilon theophrasti) were planted into a blend of loam soil and sand and treated preemergence with test chemicals formulated in a non-phytotoxic solvent mixture which included a surfactant.
At the same time, plants selected from these crop and weed species and also chickweed (common chickweed, Stellaria media), canarygrass (littleseed canarygrass, Phalaris minor), and deadnettle (henbit deadnettle, Lamium amplexicaule), were planted in pots containing Redi-Earth® planting medium (Scotts Company, 14111 Scottslawn Road, Marysville, Ohio 43041) comprising spaghnum peat moss, vermiculite, wetting agent and starter nutrients and treated with postemergence applications of test chemicals formulated in the same manner. Plants ranged in height from 2 to 18 cm (1- to 4-leaf stage) for postemergence treatments. Treated plants and controls were maintained in a greenhouse for 13 to 15 days, after which time all species were compared to controls and visually evaluated. Plant response ratings, summarized in Table C, are based on a scale of 0 to 100 where 0 is no effect and 100 is complete control. A dash (-) response means no test result.

[8] = 125 g ai/ha, scale 0 to 100, 0 no effect, 100 complete control
[9] = 31 g ai/ha, scale 0 to 100 (0 no effect, 100 complete control)
[10] = 62 g ai/ha, scale 0 to 100 (0 no effect, 100 complete control)
[11] = preemergence, 500 g ai/ha, visual injury after approx. 10 days, 0 to 100 scale (0 no effect, 100 complete control)
[12] = preemergence, 31 g ai/ha, visual rating, scale 0 to 100 (0 no effect, 100 complete control), 13 to 15 days
[13] = preemergence, 62 g ai/ha, scale 0 to 100 (0 no effect, 100 complete control), 13 to 15 days
[14] = preemergence, 125 g ai/ha, 13 to 15 days, scale 0 to 100, 0 = no effect, 100 = complete control
[15] = preemergence, 250 g ai/ha, scale 0 to 100, 0 is no effect, 100 is complete control
[16] = 125 g ai/ha, scale 0 to 100 (0 no effect, 100 complete control)
[17] = 250 g ai/ha, scale 0 to 100 (0 no effect, 100 complete control)
[18] = Preemergence, rate head not shown (block before 16 g ai/ha), scale 0 to 100

CCONC(=O)c1cc(CC)n(Cc2ccnc(C(F)(F)F)c2)n1 [Compound 77]
Barnyardgrass plant response rating ([1]; Preemergence, 500 g ai/ha, 0 to 100 scale, 0 no effect, 100 complete control): 100 | Barnyardgrass plant response rating ([1]; preemergence, 125 g ai/ha, visual injury, 0 to 100 scale, approx. 10 days): 90 | Plant response rating (scale of 0 to 100), Nutsedge, Yellow ([2]; Postemergence, 16 g ai/ha): 0 | Plant response rating (scale of 0 to 100 where 0 is no effect and 100 is complete control), Nutsedge, Yellow ([2]; Postemergence): 5 | Nutsedge, Yellow plant response rating [2]: 5 | Plant response rating, Nutsedge, Yellow [2, 8]: 5 | Plant response rating, Rice [3, 9]: 0 | Plant response rating, Rice [3, 10]: 0 | Plant response rating, Rice ([3]; 125 g ai/ha, scale 0 to 100): 0 | Plant response rating, Rice ([3]; 250 g ai/ha, scale 0 to 100): 0 | Plant response rating, Sedge, Umbrella [4, 9]: 0 | Plant response rating, Sedge, Umbrella [4, 10]: 50 | Plant response rating, Sedge, Umbrella ([4]; 125 g ai/ha, scale 0 to 100): 60 | Plant response rating, Sedge, Umbrella ([4]; 250 g ai/ha, scale 0 to 100): 75 | Plant response rating, Ducksalad [5, 9]: 20 | Plant response rating, Ducksalad [5, 10]: 40 | Plant response rating, Ducksalad ([5]; 125 g ai/ha, scale 0 to 100): 70 | Plant response rating, Ducksalad ([5]; 250 g ai/ha, scale 0 to 100): 75 | Plant response rating, Barnyardgrass [6, 9]: 0 | Plant response rating, Barnyardgrass [6, 10]: 0 | Plant response rating, Barnyardgrass ([6]; 125 g ai/ha, scale 0 to 100): 20 | Plant response rating, Barnyardgrass ([6]; 250 g ai/ha, scale 0 to 100): 20

O=C(NC1CC1)c1cc(CCF)n(Cc2ccnc(C(F)(F)F)c2)n1 [Compound 176]
Barnyardgrass plant response rating (0 to 100 scale, 0 is no effect, 100 is complete control) ([1]; preemergence, 125 g ai/ha): 80 | Barnyardgrass plant response rating [1, 11]: 100 | Wheat plant response rating [7, 12]: 0 | Wheat plant response rating [7, 13]: 0 | Plant response rating, Wheat [7, 14]: 5 | Wheat plant response rating [7, 15]: 85 | Plant response rating, Rice [3, 9]: 0 | Plant response rating, Rice [3, 10]: 0 | Plant response rating, Rice ([3]; 125 g ai/ha, scale 0 to 100): 20 | Plant response rating, Rice ([3]; 250 g ai/ha, scale 0 to 100): 20 | Plant response rating, Sedge, Umbrella [4, 9]: 0 | Plant response rating, Sedge, Umbrella [4, 10]: 40 | Plant response rating, Sedge, Umbrella ([4]; 125 g ai/ha, scale 0 to 100): 95 | Plant response rating, Sedge, Umbrella ([4]; 250 g ai/ha, scale 0 to 100): 100 | Plant response rating, Ducksalad [5, 9]: 0 | Plant response rating, Ducksalad [5, 10]: 70 | Plant response rating, Ducksalad ([5]; 125 g ai/ha, scale 0 to 100): 95 | Plant response rating, Ducksalad ([5]; 250 g ai/ha, scale 0 to 100): 100 | Plant response rating, Barnyardgrass [6, 9]: 0 | Plant response rating, Barnyardgrass [6, 10]: 0 | Plant response rating, Barnyardgrass ([6]; 125 g ai/ha, scale 0 to 100): 20 | Plant response rating, Barnyardgrass ([6]; 250 g ai/ha, scale 0 to 100): 10

CCNC(=O)c1cc(CCF)n(Cc2ccnc(C(F)(F)F)c2)n1 [Compound 178]
Barnyardgrass plant response rating (0 to 100 scale, 0 is no effect, 100 is complete control) ([1]; preemergence, 125 g ai/ha): 80 | Barnyardgrass plant response rating [1, 11]: 100 | Plant response rating, Wheat ([7]; Preemergence, 16 g ai/ha, scale 0 to 100): 0 | Wheat plant response rating [7, 12]: 0 | Wheat plant response rating [7, 13]: 0 | Plant response rating, Wheat [7, 14]: 0 | Plant response rating, Rice [3, 9]: 0 | Plant response rating, Rice [3, 10]: 0 | Plant response rating, Rice [3, 16]: 0 | Plant response rating, Rice ([3]; 250 g ai/ha, scale 0 to 100): 20 | Plant response rating, Sedge, Umbrella [4, 9]: 0 | Plant response rating, Sedge, Umbrella [4, 10]: 0 | Plant response rating, Sedge, Umbrella [4, 16]: 40 | Plant response rating, Sedge, Umbrella ([4]; 250 g ai/ha, scale 0 to 100): 80 | Plant response rating, Ducksalad [5, 9]: 0 | Plant response rating, Ducksalad [5, 10]: 30 | Plant response rating, Ducksalad [5, 16]: 60 | Plant response rating, Ducksalad ([5]; 250 g ai/ha, scale 0 to 100): 90 | Plant response rating, Barnyardgrass [6, 9]: 0 | Plant response rating, Barnyardgrass [6, 10]: 0 | Plant response rating, Barnyardgrass [6, 16]: 0 | Plant response rating, Barnyardgrass ([6]; 250 g ai/ha, scale 0 to 100): 20

CCCNC(=O)c1cc(OCC)n(Cc2ccnc(C(F)(F)F)c2)n1 [Compound 187]
Barnyardgrass plant response rating (0 to 100 scale, 0 is no effect, 100 is complete control) ([1]; preemergence, 125 g ai/ha): 90 | Barnyardgrass plant response rating [1, 11]: 100 | Wheat plant response rating [7, 12]: 20 | Wheat plant response rating [7, 13]: 80 | Plant response rating, Wheat [7, 14]: 90 | Wheat plant response rating [7, 15]: 90 | Plant response rating (scale of 0 to 100 where 0 is no effect and 100 is complete control), Nutsedge, Yellow ([2]; Postemergence): 5 | Nutsedge, Yellow plant response rating [2]: 5 | Plant response rating, Nutsedge, Yellow [2, 17]: 10 | Plant response rating, Nutsedge, Yellow [2, 8]: 5

CCCc1cc(C(=O)NC(C)C)nn1Cc1cc(C(F)(F)F)nn1C [Compound 201]
Barnyardgrass plant response rating (0 to 100 scale, 0 is no effect, 100 is complete control) ([1]; preemergence, 125 g ai/ha): 100 | Barnyardgrass plant response rating [1, 11]: 100 | Wheat plant response rating [7, 12]: 80 | Wheat plant response rating [7, 13]: 85 | Plant response rating, Wheat [7, 14]: 90 | Wheat plant response rating [7, 15]: 90 | Plant response rating (scale of 0 to 100 where 0 is no effect and 100 is complete control), Nutsedge, Yellow ([2]; Postemergence): 10 | Nutsedge, Yellow plant response rating [2]: 10 | Plant response rating, Nutsedge, Yellow [2, 17]: 10 | Plant response rating, Nutsedge, Yellow [2, 8]: 5

CCCc1cc(C(=O)NC2CC2)nn1Cc1cc(C(F)(F)F)nn1C [Compound 202]
Barnyardgrass plant response rating (0 to 100 scale, 0 is no effect, 100 is complete control) ([1]; preemergence, 125 g ai/ha): 90 | Barnyardgrass plant response rating [1, 11]: 100 | Wheat plant response rating [7, 12]: 0 | Wheat plant response rating [7, 13]: 85 | Plant response rating, Wheat [7, 14]: 85 | Wheat plant response rating [7, 15]: 90 | Plant response rating (scale of 0 to 100 where 0 is no effect and 100 is complete control), Nutsedge, Yellow ([2]; Postemergence): 0 | Nutsedge, Yellow plant response rating [2]: 5 | Plant response rating, Nutsedge, Yellow [2, 17]: 20 | Plant response rating, Nutsedge, Yellow [2, 8]: 10

CCc1cc(C(=O)NCC(F)(F)F)nn1Cc1ccnc(SC(F)(F)F)c1 [Compound 214]
Barnyardgrass plant response rating (0 to 100 scale, 0 is no effect, 100 is complete control) ([1]; preemergence, 125 g ai/ha): 100 | Barnyardgrass plant response rating [1, 11]: 100 | Wheat plant response rating [7, 12]: 0 | Wheat plant response rating [7, 13]: 0 | Plant response rating, Wheat [7, 14]: 10 | Wheat plant response rating [7, 15]: 40 | Plant response rating (scale of 0 to 100 where 0 is no effect and 100 is complete control), Nutsedge, Yellow ([2]; Postemergence): 0 | Nutsedge, Yellow plant response rating [2]: 10 | Plant response rating, Nutsedge, Yellow [2, 17]: 5 | Plant response rating, Nutsedge, Yellow [2, 8]: 5

CCc1cc(C(=O)NC2CC2)nn1Cc1ccnc(Br)c1 [Compound 220]
Barnyardgrass plant response rating (0 to 100 scale, 0 is no effect, 100 is complete control) ([1]; preemergence, 125 g ai/ha): 80 | Barnyardgrass plant response rating [1, 11]: 100 | Plant response rating, Wheat [7, 18]: 10 | Wheat plant response rating [7, 13]: 0 | Plant response rating, Wheat [7, 14]: 15 | Wheat plant response rating [7, 15]: 0 | Plant response rating (scale of 0 to 100 where 0 is no effect and 100 is complete control), Nutsedge, Yellow ([2]; Postemergence): 0 | Nutsedge, Yellow plant response rating [2]: 0 | Plant response rating, Nutsedge, Yellow [2, 17]: 10 | Plant response rating, Nutsedge, Yellow [2, 8]: 40

CCc1cc(C(=O)NCC(F)(F)F)nn1Cc1ccnc(Br)c1 [Compound 224]
Barnyardgrass plant response rating (0 to 100 scale, 0 is no effect, 100 is complete control) ([1]; preemergence, 125 g ai/ha): 90 | Barnyardgrass plant response rating [1, 11]: 100 | Plant response rating, Wheat [7, 18]: 0 | Wheat plant response rating [7, 13]: 0 | Plant response rating, Wheat [7, 14]: 10 | Wheat plant response rating [7, 15]: 60 | Plant response rating (scale of 0 to 100 where 0 is no effect and 100 is complete control), Nutsedge, Yellow ([2]; Postemergence): 0 | Nutsedge, Yellow plant response rating [2]: 0 | Plant response rating, Nutsedge, Yellow [2, 17]: 5 | Plant response rating, Nutsedge, Yellow [2, 8]: 5
